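Briefly, cells in 96-well plates were exposed to five compound concentrations for 48 h, and endpoints were estimated by linear interpolation. GI50 = concentration required for 50% inhibition of growth. The concentration for full growth arrest is given as TGI.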
Assays:
Test in all cases: NCI-60 cell line screen, 48 h
RXF 393 renal = test system: RXF 393 renal
RPMI-8226 leukemia = test system: RPMI-8226 leukemia
KM12 colon = test system: KM12 colon
HL-60(TB) leukemia = test system: HL-60(TB) leukemia
MALME-3M melanoma = test system: MALME-3M melanoma
LOX IMVI melanoma = test system: LOX IMVI melanoma
HOP-62 NSCLC = test system: HOP-62 NSCLC
EKVX NSCLC = test system: EKVX NSCLC
SK-OV-3 ovarian = test system: SK-OV-3 ovarian
CCRF-CEM leukemia = test system: CCRF-CEM leukemia

Compound | GI50 (RXF 393 renal) [µM] | TGI (RXF 393 renal) [µM] | GI50 (RPMI-8226 leukemia) [µM] | TGI (RPMI-8226 leukemia) [µM] | GI50 (KM12 colon) [µM] | TGI (KM12 colon) [µM] | GI50 (HL-60(TB) leukemia) [µM] | TGI (HL-60(TB) leukemia) [µM] | GI50 (MALME-3M melanoma) [µM] | TGI (MALME-3M melanoma) [µM] | GI50 (LOX IMVI melanoma) [µM] | TGI (LOX IMVI melanoma) [µM] | GI50 (HOP-62 NSCLC) [µM] | TGI (HOP-62 NSCLC) [µM] | GI50 (EKVX NSCLC) [µM] | TGI (EKVX NSCLC) [µM] | GI50 (SK-OV-3 ovarian) [µM] | TGI (SK-OV-3 ovarian) [µM] | GI50 (CCRF-CEM leukemia) [µM] | TGI (CCRF-CEM leukemia) [µM]
COc1ccc(/C=C(/C(=O)N2CCN(c3ccc(C)cc3)CC2)c2cc(OC)c(OC)c(OC)c2)cc1N | 0.271 | > 100 | 0.284 | > 33.7 | 0.314 | > 100 | 0.255 | 0.679 | 0.503 | > 100 | 0.221 | > 100 | 0.474 | > 100 | 0.628 | > 100 | 0.755 | > 100 | 0.394 | > 100
CCN(CC)c1ccc(CNc2cc(C)nc3ccc(OC)cc23)cc1 | 2.02 | 3.87 | 1.71 | 4.2 | 3.1 | 11.6 | 1.6 | 4.23 | 1.8 | 3.43 | 1.67 | 3.47 | 7.24 | 21 | 3.14 | 15.3 | 10.3 | 22 | 2.78 | 10.2
CC[C@@]1(O)C(=O)OCc2c1cc1n(c2=O)Cc2cc3c([N+](=O)[O-])c(O)ccc3nc2-1 | 0.328 | 2.05 | 0.848 | 9.39 | 1.68 | 20.9 | 0.13 | 1.3 | 1.06 | 12.7 | 0.0552 | 0.91 | 0.026 | 0.0964 | 13.3 | > 100 | 0.614 | 25 | < 0.026 | 0.469
CC/C=C\C[C@H](O)C/C=C1/C(=O)C=C[C@@H]1C/C=C\CCCC(=O)OCCS(=O)(=O)c1ccccc1 | 2.75 | 6.47 | 2.7 | 8.25 | 2.09 | 6.05 | 2.84 | 12.3 | 6.71 | 22.3 | 1.44 | 3.66 | 3.47 | 10.5 | 12.2 | 30.5 | 6.38 | 27.7 | 2.44 | 9.26
COc1cccc(-c2cc(C(=O)Nc3ccc(Cl)cc3)nc(N)n2)c1 |  | > 100 |  | > 100 |  | > 100 |  | > 100 |  | > 100 |  | > 100 |  | > 100 |  | > 100 |  | > 100 |  | > 100
CO[C@H](C(=O)O[C@H]1C(=O)N2CCC3CCC1C32C)c1ccccc1 (stereo not given in full) |  | > 100 |  | > 100 |  | > 100 |  | > 100 |  | > 100 |  | > 100 |  | > 100 |  | > 100 |  | > 100 |  | > 100
[O-]c1ccccc1[C-]=Nc1ccccc1O.[O-]c1ccccc1[C-]=Nc1ccccc1O.[O]=[U]=[O] | 20.1 | 45.5 | 1.59 | 49.5 | 6.35 | > 100 | 1.76 | 7.47 | 12.8 | 30.1 | 9.82 | 68 | 19.9 | 57.4 | 24 | 62.4 | 43 | 71 | 2.6 | 44.4
CN1C(=O)C(C)(C)NS1(=O)=O |  | > 100 |  | > 100 |  | > 100 |  | > 100 |  | > 100 |  | > 100 |  | > 100 |  | > 100 |  | > 100 |  | > 100
CC[C@]12C=CCN3CC[C@@]4(c5ccc(OC)cc5N(C)[C@H]4[C@@](O)(C(=O)OC)[C@@H]1OC(=O)CCCC[P+](c1ccccc1)(c1ccccc1)c1ccccc1)[C@@H]32 | 0.635 | 2.72 | 0.332 | 2.11 | 0.44 | 1.85 | 0.34 | 1.15 | 0.319 | 1.35 | 1.11 | 9.03 | 2.94 | 13.7 | 0.907 | 15.8 | 0.725 | 5.9 | 0.789 | 6.46
O=C1C2=C(C(=O)c3c(O)ccc(O)c31)N(c1cccnc1)Cc1ccccc1O2 | 0.182 | 0.367 | 0.386 | 2.03 | 1.33 | 5.23 | 0.154 | 0.484 | 0.164 | 0.385 | 0.127 | 0.56 | 2.29 | 6.64 | 1.18 | 5.74 | 3.52 | 12.8 | 0.0878 | 0.513
CCCCCCCCCCCCCCCCSS(C)(=O)=O |  | 10.9 |  | 14.1 |  | > 100 |  | 11.6 |  | 24.9 |  | 19.3 |  | > 100 |  | > 100 |  | > 100 |  | 18.4
Cc1ccc(C(=O)Nc2ccc(CN3CCN(C)CC3)c(C(F)(F)F)c2)cc1C#Cc1cnc(N)c2ccc(C#N)cc12 | 0.0407 | 5.82 | 1.08 | 19.4 | 0.304 | 17.4 | 0.338 | > 50 | 0.0237 | 0.694 | 0.0419 | 6.79 | 1.7 | 22.9 | 9.46 | > 50 | 0.0981 | 12.8 | 0.807 | 18
C=CCNC(=O)ON1C(=O)CCC1=O |  | > 100 |  | > 100 |  | > 100 |  | > 100 |  | > 100 |  | > 100 |  | > 100 |  | > 100 |  | > 100 |  | > 100
NC(N)=NS(=O)(=O)c1ccc(NC(=O)c2cccn3c(=O)c4ccccc4nc23)cc1 |  | > 100 |  | 65.1 |  | 36 |  | 44.9 |  | > 100 |  | > 100 |  | > 100 |  | > 100 |  | > 100 |  | 88
COC(=O)CCC(=O)Nc1cccc(C(F)(F)F)c1 |  | > 100 |  | > 100 |  | > 100 |  | > 100 |  | > 100 |  | > 100 |  | > 100 |  | > 100 |  | > 100 |  | > 100
C=C(c1ccc(OC)c(/C=C/C(=O)c2cc(OC)c(OC)c(OC)c2)c1)c1cc(OC)c(OC)c(OC)c1 | 1.11 | 2.62 | 0.453 | 3.06 | 1.16 | 2.72 | 2.03 | 13.4 | 1.88 | 4.45 | 0.582 | 1.95 | 2.27 | 6.68 | 2.23 | 9.74 | 3.6 | > 100 | 0.359 | > 100
